This is an account of results in patent US4094966A, “Iodobenzene derivatives and X-ray contrast media containing the same” (priority 1974, dated 1978).

One data set relates to rats. Kind of data set: Toxicological investigation in rats on intracisternal injection (Melartin's method). It is filed as in vivo. From the text: The results of a toxicological investigation effected in rats on intracisternal injection, according to E. Melartin's method (InvestigativeRadiology 1970 5, 1, 13-21) are also set forth below.
Data set [1] can be described thus: Biliary clearance test in cats. It is filed as in vivo. Also on record: scale not given here. To be noted: i.v., 0.10 g I/kg; 28% I, Mgl salt. The method, then:
This test was conducted in male or female adult cats weighing 3-4 kg.
The test material was injected intravenously, at a dosage of 0.10 g/kg iodine at the level of the internal saphenous vein. Clearance of the material was monitored by X-ray control.
X-ray pictures visualizing the gall bladder and the bladder were taken at the following times: 30 minutes, 1 hour, 2 hours, 3 hours, 4 hours, 5 hours, 6 hours.

Data set [2] can be described thus: Osmolality determination (FISKE osmometer). It is filed as physicochemical. To be noted: solutions containing 28% iodine; methylglucamine salts; extrapolation from successive dilutions. The method, then:
Osmolality is determined by extrapolation of the values obtained on successive dilutions of solutions containing 28% or 38% iodine.
Osmolality readings are made with a FISKE Model 230/D/330 D osmometer. This apparatus indicates this measurement as milliosmoles per kg of solution. Its operation is based on the principles of cryoscopy. The determinations were made with solutions containing 28% iodine.

Data set [3] in a line: Viscosity of 28% methylglucamine salt solutions at 37° C. Conditions: 28% iodine methylglucamine salt solution. It is filed as physicochemical. On the procedure:
Pharmaceutical grade injectable solutions are prepared in the form of the methylgucamine or sodium salt, containing 28, 38 or 48 g iodine per 100 ml (solutions said to contain 28%, 38% and 48% iodine).
It is apparent, from said results, that, contrary to expectations, the compounds of the formula (I) have relatively low solution viscosities.

For another data set, the system named is mice. In words: Acute toxicity determination, intravenous toxicity in mice. The data set is classed as in vivo, mice (Swiss origin, IOPS mice of OFI strain). To be noted: 24 hours, 28% I, Mgl salt. The method, then:
Intravenous toxicity determination was effected in Swiss origin, IOPS mice of OFI strain.
Each dosage level was injected to a lot of 10 mice comprising 5 male and 5 female mice.
Injections were made manually, in the caudal vein, at a rate of 2 ml/minute.
Death rate during the 24 hours after injection was recorded.

Another data set has as its system femoral artery. In words: Effect on the femoral rate of flow (peripheral vasodilatation). The data set is classed as in vivo, mongrels. To be noted: 1.5 ml into collateral of femoral artery; 28% I, Mgl salt. On the procedure:
This test was carried out in Nembutal-anesthetized male or female 7-12 mongrels.
Nembutal was used at a dosage of 30 mg/kg, with Vetranquil pre-medication, (overall intravenous injection of 2.5 mg), respiration was spontaneous.
Rate of flow variations were recorded at the level of the right or left fermoral artery, by means of a Statham electromagnetic sensor.
The injections were made in a collateral of the fermoral artery, downstream of the sensor, by means of a catheter mounted by the retrograde route, so as not to perturb the blood flow.
The injections were made under a constant volume of 1.5 ml administered within 3-5 seconds.
The same volume of an iostonic sodium chloride solution was also injected.

Consider `CNC(=O)c1c(I)c(NC(=O)CN(CC(=O)Nc2c(I)c(C(=O)NCCO)c(I)c(C(=O)NCCO)c2I)CC(=O)Nc2c(I)c(C(=O)NCCO)c(I)c(C(=O)NCCO)c2I)c(I)c(C(=O)O)c1I` [Compound 31, 2,4,6-triiodo--3-N-methylcarbamyl-5-bis{[2,4,6-triiodo-3,5-bis(N-hydroxyethylcarbamyl)-phenyl]carbamylmethyl} aminoacetamido-benzoic acid], for which the Death rate in the data set with rats (56 mg I per rat) is reported as 1/10. In addition, in data set [1], the “Biliary clearance in cat, i.v.” value was 0. Moreover, the Osmolality in data set [2] was 350 mosm/kg. The Viscosity in data set [3] is 10.2 cps. Also, the “Acute toxicity in mice, i.v.” value in the data set with mice was 15 grams I/kg. In addition, the “Peripheral vasodilatation, femoral rate of flow” value in the data set with femoral artery is on record as “+”.

With `CNC(=O)c1c(I)c(NC(=O)CCCCC(=O)Nc2c(I)c(C(=O)O)c(I)c(C(=O)NC)c2I)c(I)c(C(=O)O)c1I` [c, 5,5'-Adipoyldiimido-bis-(2,4,6-triiodo-N-methylisophthalamic)acid, reference compound], the Death rate with rats (17 mg I per rat) is 9/10. For the same molecule, the “Biliary clearance in cat, i.v.” value in data set [1] is reported as 0. The Osmolality in data set [2] is on record as 950 mosm/kg. For the same molecule, the “Acute toxicity in mice, i.v.” value in the data set on mice worked out at 6.2 grams I/kg. Moreover, in the data set on femoral artery, the “Peripheral vasodilatation, femoral rate of flow” value is listed as “++”.
